In ChEMBL document CHEMBL1159143, “Benzofuran based non-peptide antagonists of angiotensin II related to GR117289: part IV; imidazopyridinylbenzofurans” (Bioorg Med Chem Lett, 1994):

Assays:
[1] = tested on: Type-1 angiotensin II receptor (Oryctolagus cuniculus); test: In vitro inhibitory activity against Angiotensin II receptor in rabbit aorta was evaluated
[2] = Compound was tested for plasma clearance in rats; format: ADME, organism-based; conditions: rat, read-out: Clp
[3] = Compound was tested for plasma half-life period in rat; format: ADME, organism-based
[4] = Volume distribution in rat; format: ADME, organism-based; conditions: in vivo
[5] = Oral bioavailability in rat; format: ADME, organism-based; conditions: in vivo

| pKB [1] | clearance [2] [mL/min/kg] | half-life [3] [h] | Vd [4] [L/kg] | bioavailability [5] [%] | Structure (SMILES) |
| --- | --- | --- | --- | --- | --- |
| 9.3 | – | – | – | – | CCc1nc2c(C)cc(C(=O)O)nc2n1Cc1ccc2oc(-c3ccccc3NS(=O)(=O)C(F)(F)F)c(Br)c2c1 |
| 8.3 | – | – | – | – | CCc1nc2c(C)ccnc2n1Cc1ccc2oc(-c3ccccc3NS(=O)(=O)C(F)(F)F)c(Br)c2c1 |
| 8.6 | 4.8 | 5.7 | 2.4 | 115 | CCc1nc2c(C)cc(CO)nc2n1Cc1ccc2oc(-c3ccccc3NS(=O)(=O)C(F)(F)F)c(Br)c2c1 |
| 9.3 | 5.49 | 2.8 | 1.33 | 70 | CCc1nc2c(C)cc(C)nc2n1Cc1ccc2oc(-c3ccccc3NS(=O)(=O)C(F)(F)F)c(Br)c2c1 |
